Values quoted from earlier work in patent US20180055969A1, “BIPHASIC CERAMIC BONE SUBSTITUTE” (BONE SUPPORT AB, priority 2015, published 2018).

Tested on: bone resorption
Details: for potency relative to etidronate: value in parenthesis, etidronate as reference; for potency compared with etidronate: times as potent as etidronate

SMILES	potency relative to etidronate	potency compared with etidronate
NCCC(O)(P(=O)(O)O)P(=O)(O)O [pamidronate]	100	–
O=P(O)(O)C(O)(Cc1cccnc1)P(=O)(O)O [risedronate]	2000	–
O=P(O)(O)C(Cl)(Cl)P(=O)(O)O [Clodronate, clodronate]	–	10 times
NCCCCCC(O)(P(=O)(O)O)P(=O)(O)O [neridronate]	100	–
CCCCCN(C)CCC(O)(P(=O)(O)O)P(=O)(O)O [ibandronate]	1000	–
CN(C)CCC(O)(P(=O)(O)O)P(=O)(O)O [olpadronate]	500	–
NCCCC(O)(P(=O)(O)O)P(=O)(O)O [alendronate]	500	10-100 times
O=P(O)(O)C(O)(Cn1ccnc1)P(=O)(O)O [zoledronate]	10000	up to 10.000 times
O=P(O)(O)C(Sc1ccc(Cl)cc1)P(=O)(O)O [tiludronate]	–	10 times
